Results published in ChEMBL document CHEMBL4334438, “Discovery of novel glycogen synthase kinase-3α inhibitors: Structure-based virtual screening, preliminary SAR and biological evaluation for treatment of acute myeloid leukemia” (Eur J Med Chem, 2019).

Experiments:
[1] = target: Tau-tubulin kinase 1 (Homo sapiens) (UniProt Q5TCY1); test: Inhibition of human TTBK1 (1 to 479 residues) assessed as residual activity at 1 uM using Casein as substrate measured after 40 mins in presence of [gamma33P]ATP by scintillation counting method relative to control
[2] = test system: Angiopoietin-1 receptor (Homo sapiens), Q02763 [Q939H,Q940H,Y897S]; test: Inhibition of human Tie2 Q939H/Q940H/Y897S mutant (771 to end residues) assessed as residual activity at 1 uM using EFPIYDFLPAKKK as substrate measured after 40 mins in presence of [gamma33P]ATP by scintillation counting method relative to control
[3] = target: Serine/threonine-protein kinase SIK1 (Homo sapiens) (UniProt P57059); test: Inhibition of recombinant human SIK (1 to 281 residues) assessed as residual activity at 1 uM using AMARAASAAALARRR as substrate measured after 40 mins in presence of [gamma33P]ATP by scintillation counting method assay relative to control
[4] = test system: Angiopoietin-1 receptor (Homo sapiens), Q02763 [Q939H,Q940H]; test: Inhibition of human Tie2 Q939H/Q940H mutant (771 to end residues) assessed as residual activity at 1 uM using poly(Glu, Tyr) 4:1 as substrate measured after 40 mins in presence of [gamma33P]ATP by scintillation counting method relative to control
[5] = target: Tribbles homolog 2 (Homo sapiens) (UniProt Q92519); test: Inhibition of recombinant full-length human TRB2 at 1 uM assessed as residual activity at 1 uM using RRRFRPASPLRGPPK as substrate measured after 120 mins in presence of [gamma33P]ATP by scintillation counting method relative to control
[6] = target: CDK9/cyclin T1 (Homo sapiens) (UniProt O60563+P50750); test: Inhibition of recombinant full length human CDK9/cyclinT1 assessed as residual activity at 1 uM using KTFCGTPEYLAPEVRREPRILSEEEQEMFRDFDYIADWC as substrate incubated for 40 mins in presence of [gamma-33ATP] by scintillation counting based radiometry assay relative to control; format: protein-complex assay
[7] = test system: PI3-kinase p110-alpha/p85-alpha (Homo sapiens), P27986+P42336 [H1047R]; test: Inhibition of recombinant full-length human PI3K p110alpha H1047R mutant/p85alpha assessed as residual activity at 1 uM assessed as residual activity at 1 uM using phosphatidylinositol-4, 5-bisphosphate as substrate incubated for 40 mins in presence of [gamma33P]ATP by scintillation counting based radiometry assay relative to control; format: protein-complex assay
[8] = target: Casein kinase I isoform gamma-1 (Homo sapiens) (UniProt Q9HCP0); test: Inhibition of recombinant human CK1gamma1 (25 to 355 residues) assessed as residual activity at 1 uM using KRRRALS(p)VASLPGL as substrate measured after 40 mins in presence of [gamma33P]ATP by scintillation counting method
[9] = target: Tyrosine-protein kinase ABL1 (Homo sapiens) (UniProt P00519); test: Inhibition of human ABL1 (27 to end residues) assessed as residual activity at 1 uM using EAIYAAPFAKKK as substrate incubated for 40 mins in presence of [gamma-33ATP] by scintillation counting based radiometry assay relative to control
[10] = target: Serine/threonine-protein kinase MAK (Homo sapiens) (UniProt P20794); test: Inhibition of recombinant human MAK assessed as residual activity at 1 uM using RRRFRPASPLRGPPK as substrate after 120 mins in presence of [gamma-33ATP] by scintillation counting based radiometry assay relative to control
[11] = target: Receptor-interacting serine/threonine-protein kinase 1 (Homo sapiens) (UniProt Q13546); test: Inhibition of recombinant human RIPK1 (8 to 322 residues) assessed as residual activity at 1 uM using myelin basic protein as substrate measured after 120 mins in presence of [gamma33P]ATP by scintillation counting method relative to control
[12] = target: Cyclin-dependent kinase 5/CDK5 activator 1 (Homo sapiens) (UniProt Q00535+Q15078); test: Inhibition of recombinant full length human CDK5/p25 assessed as residual activity at 1 uM using histone H1 as substrate incubated for 40 mins in presence of [gamma-33ATP] by scintillation counting based radiometry assay relative to control; format: protein-complex assay
[13] = target: Death-associated protein kinase 3 (Homo sapiens) (UniProt O43293); test: Inhibition of human ZIPK (1 to 290 residues) assessed as residual activity at 1 uM using KKLNRTLSFAEPG as substrate measured after 40 mins in presence of [gamma33P]ATP by scintillation counting method relative to control
[14] = test system: TGF-beta receptor type-1 (Homo sapiens), P36897 [T204D]; test: Inhibition of human TGFBR1 T204D mutant (200 to end residues) assessed as residual activity at 1 uM using casein as substrate measured after 40 mins in presence of [gamma33P]ATP by scintillation counting method relative to control
[15] = target: Serine/threonine-protein kinase 32C (Homo sapiens) (UniProt Q86UX6); test: Inhibition of recombinant full-length human STK32C at 1 uM assessed as residual activity at 1 uM using casein as substrate measured after 120 mins in presence of [gamma33P]ATP by scintillation counting method relative to control
[16] = target: Ribosomal protein S6 kinase alpha-3 (Homo sapiens) (UniProt P51812); test: Inhibition of recombinant human Rsk2 (2 to end residues) assessed as residual activity at 1 uM using KKKNRTLSVA as substrate measured after 40 mins in presence of [gamma33P]ATP by scintillation counting method relative to control
[17] = target: Protein kinase C theta type (Homo sapiens) (UniProt Q04759); test: Inhibition of recombinant full length human PKCtheta assessed as residual activity at 1 uM using histone H1 as substrate measured after 40 mins in presence of [gamma33P]ATP by scintillation counting method relative to control
[18] = target: Calcium/calmodulin-dependent protein kinase type 1B (Homo sapiens) (UniProt Q6P2M8); test: Inhibition of recombinant full length human CaMKIbeta assessed as residual activity at 1 uM using KKLRRTLSFAEP as substrate incubated for 40 mins in presence of [gamma-33ATP] by scintillation counting based radiometry assay relative to control
[19] = target: Dual specificity protein kinase CLK4 (Homo sapiens) (UniProt Q9HAZ1); test: Inhibition of recombinant human CLK4 (128 to end residues) assessed as residual activity at 1 uM using YRRAAVPPSPSLSR as substrate incubated 40 mins in presence of [gamma-33ATP] by scintillation counting based radiometry assay relative to control
[20] = target: Serine/threonine-protein kinase WNK2 (Homo sapiens) (UniProt Q9Y3S1); test: Inhibition of human WNK2 (166 to 489 residues) assessed as residual activity at 1 uM using myelin basic protein as substrate measured after 40 mins in presence of [gamma33P]ATP by scintillation counting method relative to control
[21] = test system: Tyrosine-protein kinase ABL1 (Homo sapiens), P00519 [Q252H]; test: Inhibition of human ABL1 Q252H mutant (27 to end residues) assessed as residual activity at 1 uM using EAIYAAPFAKKK as substrate incubated for 40 mins in presence of [gamma-33ATP] by scintillation counting based radiometry assay relative to control

Sequence of Casein kinase I isoform gamma-1 (Homo sapiens) (Q9HCP0 whole entry, looked up, the tested form may be a part, canonical isoform): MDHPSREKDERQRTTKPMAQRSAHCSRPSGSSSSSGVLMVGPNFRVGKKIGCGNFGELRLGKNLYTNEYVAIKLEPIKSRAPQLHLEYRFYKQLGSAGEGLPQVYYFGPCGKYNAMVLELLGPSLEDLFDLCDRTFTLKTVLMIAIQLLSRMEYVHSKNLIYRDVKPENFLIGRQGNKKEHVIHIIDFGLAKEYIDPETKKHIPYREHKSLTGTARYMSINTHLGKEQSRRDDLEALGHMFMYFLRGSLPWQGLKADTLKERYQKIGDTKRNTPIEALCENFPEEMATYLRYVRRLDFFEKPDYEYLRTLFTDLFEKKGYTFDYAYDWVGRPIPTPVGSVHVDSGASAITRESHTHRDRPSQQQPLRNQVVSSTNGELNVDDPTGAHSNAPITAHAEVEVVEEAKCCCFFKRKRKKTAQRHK
Sequence of Receptor-interacting serine/threonine-protein kinase 1 (Homo sapiens) (Q13546 whole entry, the tested form may be a part): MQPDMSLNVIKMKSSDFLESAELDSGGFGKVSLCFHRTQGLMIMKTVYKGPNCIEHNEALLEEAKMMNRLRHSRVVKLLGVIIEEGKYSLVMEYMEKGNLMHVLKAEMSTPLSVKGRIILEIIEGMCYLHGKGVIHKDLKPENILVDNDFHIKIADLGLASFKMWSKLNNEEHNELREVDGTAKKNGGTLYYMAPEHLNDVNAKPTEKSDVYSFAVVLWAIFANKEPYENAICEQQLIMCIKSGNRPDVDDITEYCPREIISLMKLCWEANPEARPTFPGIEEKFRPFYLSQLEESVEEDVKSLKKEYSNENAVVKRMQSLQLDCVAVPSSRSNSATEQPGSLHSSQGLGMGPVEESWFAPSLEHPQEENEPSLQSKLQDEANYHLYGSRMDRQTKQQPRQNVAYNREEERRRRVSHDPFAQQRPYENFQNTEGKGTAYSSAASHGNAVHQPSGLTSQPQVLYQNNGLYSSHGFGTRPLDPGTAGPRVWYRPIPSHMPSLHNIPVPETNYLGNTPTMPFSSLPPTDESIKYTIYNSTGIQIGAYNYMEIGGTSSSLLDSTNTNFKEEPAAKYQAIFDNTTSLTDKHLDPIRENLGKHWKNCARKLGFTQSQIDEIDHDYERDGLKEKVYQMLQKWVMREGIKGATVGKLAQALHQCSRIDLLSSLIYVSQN
Sequence of Protein kinase C theta type (Homo sapiens) (Q04759 whole entry, looked up): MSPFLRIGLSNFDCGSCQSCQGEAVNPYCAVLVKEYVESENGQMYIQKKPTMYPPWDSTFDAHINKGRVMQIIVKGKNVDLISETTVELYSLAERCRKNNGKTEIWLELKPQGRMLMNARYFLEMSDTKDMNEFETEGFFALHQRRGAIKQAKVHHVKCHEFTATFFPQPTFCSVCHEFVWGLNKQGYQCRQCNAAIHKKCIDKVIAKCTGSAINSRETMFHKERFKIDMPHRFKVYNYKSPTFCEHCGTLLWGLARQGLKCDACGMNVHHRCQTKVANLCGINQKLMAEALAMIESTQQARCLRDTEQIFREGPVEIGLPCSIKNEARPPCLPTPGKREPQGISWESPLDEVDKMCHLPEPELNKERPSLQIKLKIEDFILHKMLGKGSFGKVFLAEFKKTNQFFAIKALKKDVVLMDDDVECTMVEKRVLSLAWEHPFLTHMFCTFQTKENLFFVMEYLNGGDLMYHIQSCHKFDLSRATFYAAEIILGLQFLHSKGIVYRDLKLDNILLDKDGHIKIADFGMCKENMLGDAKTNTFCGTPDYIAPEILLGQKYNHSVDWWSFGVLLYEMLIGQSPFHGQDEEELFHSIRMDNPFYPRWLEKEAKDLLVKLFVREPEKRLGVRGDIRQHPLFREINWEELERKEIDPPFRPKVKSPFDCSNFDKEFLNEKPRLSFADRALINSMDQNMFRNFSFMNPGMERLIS
Sequence of TGF-beta receptor type-1 (Homo sapiens), P36897 [T204D] (P36897 whole entry T204D): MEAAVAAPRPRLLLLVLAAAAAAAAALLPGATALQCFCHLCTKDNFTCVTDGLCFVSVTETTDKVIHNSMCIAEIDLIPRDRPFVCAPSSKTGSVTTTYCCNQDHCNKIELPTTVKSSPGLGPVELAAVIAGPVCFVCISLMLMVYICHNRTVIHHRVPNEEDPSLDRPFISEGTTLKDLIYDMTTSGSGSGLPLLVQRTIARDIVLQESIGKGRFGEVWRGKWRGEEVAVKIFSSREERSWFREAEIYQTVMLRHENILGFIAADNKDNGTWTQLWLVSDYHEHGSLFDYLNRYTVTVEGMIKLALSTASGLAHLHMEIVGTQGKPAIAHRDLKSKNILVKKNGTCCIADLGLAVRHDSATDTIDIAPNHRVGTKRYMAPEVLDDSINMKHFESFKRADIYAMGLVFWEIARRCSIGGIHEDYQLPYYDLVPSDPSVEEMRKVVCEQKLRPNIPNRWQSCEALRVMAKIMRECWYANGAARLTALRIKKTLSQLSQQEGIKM
Sequence of Serine/threonine-protein kinase MAK (Homo sapiens) (P20794 whole entry, the tested form may be a part): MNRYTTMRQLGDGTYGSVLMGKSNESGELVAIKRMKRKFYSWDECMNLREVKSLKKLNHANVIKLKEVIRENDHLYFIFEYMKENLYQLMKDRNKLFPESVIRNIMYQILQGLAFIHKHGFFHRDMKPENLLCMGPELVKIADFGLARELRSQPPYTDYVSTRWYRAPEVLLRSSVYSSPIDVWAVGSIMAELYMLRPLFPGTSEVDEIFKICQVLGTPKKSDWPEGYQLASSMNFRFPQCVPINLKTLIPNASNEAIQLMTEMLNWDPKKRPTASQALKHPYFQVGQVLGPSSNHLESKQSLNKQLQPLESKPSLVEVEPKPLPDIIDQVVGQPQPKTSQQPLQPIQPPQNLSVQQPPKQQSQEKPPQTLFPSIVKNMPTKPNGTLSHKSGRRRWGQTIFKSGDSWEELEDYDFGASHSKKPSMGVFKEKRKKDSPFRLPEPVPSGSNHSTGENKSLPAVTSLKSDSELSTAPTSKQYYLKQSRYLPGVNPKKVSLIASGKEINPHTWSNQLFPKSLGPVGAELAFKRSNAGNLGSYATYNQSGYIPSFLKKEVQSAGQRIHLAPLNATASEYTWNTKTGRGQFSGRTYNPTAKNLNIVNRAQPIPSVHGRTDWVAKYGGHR
Sequence of Tribbles homolog 2 (Homo sapiens) (Q92519 whole entry): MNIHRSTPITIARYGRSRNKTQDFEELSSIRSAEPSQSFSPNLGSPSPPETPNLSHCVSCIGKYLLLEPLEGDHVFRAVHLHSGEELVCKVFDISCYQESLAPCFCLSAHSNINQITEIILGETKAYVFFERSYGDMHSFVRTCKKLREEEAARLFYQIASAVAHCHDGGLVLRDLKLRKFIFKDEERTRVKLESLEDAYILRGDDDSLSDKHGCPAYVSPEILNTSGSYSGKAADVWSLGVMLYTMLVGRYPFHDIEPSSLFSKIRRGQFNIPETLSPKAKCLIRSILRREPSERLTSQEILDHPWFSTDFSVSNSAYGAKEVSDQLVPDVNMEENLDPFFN
Sequence of Dual specificity protein kinase CLK4 (Homo sapiens) (Q9HAZ1 whole entry, looked up, the tested form may be a part): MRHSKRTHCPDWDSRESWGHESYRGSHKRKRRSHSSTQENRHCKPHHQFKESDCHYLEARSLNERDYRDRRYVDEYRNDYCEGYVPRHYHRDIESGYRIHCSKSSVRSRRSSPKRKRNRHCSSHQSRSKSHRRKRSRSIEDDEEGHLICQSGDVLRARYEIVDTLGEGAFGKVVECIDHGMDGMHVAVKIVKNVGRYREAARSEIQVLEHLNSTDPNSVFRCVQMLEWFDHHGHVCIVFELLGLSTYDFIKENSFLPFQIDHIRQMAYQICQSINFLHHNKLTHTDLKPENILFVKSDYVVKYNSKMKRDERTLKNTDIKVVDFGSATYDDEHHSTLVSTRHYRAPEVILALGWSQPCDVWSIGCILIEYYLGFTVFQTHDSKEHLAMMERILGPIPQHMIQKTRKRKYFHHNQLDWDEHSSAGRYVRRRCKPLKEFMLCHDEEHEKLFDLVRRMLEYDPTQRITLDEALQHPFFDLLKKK
Sequence of Ribosomal protein S6 kinase alpha-3 (Homo sapiens) (P51812 whole entry): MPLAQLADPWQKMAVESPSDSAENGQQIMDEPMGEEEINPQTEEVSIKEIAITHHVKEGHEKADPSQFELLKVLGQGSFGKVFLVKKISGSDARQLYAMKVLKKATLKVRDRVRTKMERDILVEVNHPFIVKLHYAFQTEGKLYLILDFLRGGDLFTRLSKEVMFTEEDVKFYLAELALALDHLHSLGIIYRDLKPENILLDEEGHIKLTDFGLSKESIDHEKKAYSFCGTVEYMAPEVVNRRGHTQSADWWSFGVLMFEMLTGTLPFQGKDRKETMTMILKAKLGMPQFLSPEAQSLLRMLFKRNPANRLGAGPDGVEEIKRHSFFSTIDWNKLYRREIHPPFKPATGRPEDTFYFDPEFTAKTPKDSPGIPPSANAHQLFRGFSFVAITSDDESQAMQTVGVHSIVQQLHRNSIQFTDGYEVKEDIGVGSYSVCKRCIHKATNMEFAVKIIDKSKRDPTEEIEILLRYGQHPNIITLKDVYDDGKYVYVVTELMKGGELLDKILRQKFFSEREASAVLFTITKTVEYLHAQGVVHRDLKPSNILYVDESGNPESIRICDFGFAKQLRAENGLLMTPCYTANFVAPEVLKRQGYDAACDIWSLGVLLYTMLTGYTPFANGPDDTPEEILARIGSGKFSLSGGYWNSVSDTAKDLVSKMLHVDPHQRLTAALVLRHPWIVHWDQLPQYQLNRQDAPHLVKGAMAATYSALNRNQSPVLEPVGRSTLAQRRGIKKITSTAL
Sequence of Calcium/calmodulin-dependent protein kinase type 1B (Homo sapiens) (Q6P2M8 whole entry): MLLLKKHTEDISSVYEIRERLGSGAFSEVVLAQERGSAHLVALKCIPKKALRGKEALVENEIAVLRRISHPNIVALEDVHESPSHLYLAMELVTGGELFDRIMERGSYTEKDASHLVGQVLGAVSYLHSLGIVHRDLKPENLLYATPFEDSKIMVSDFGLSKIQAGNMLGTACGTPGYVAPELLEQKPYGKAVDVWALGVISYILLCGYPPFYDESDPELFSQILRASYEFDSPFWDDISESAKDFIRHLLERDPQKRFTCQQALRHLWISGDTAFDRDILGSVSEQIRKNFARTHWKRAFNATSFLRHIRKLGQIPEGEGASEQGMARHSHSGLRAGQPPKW

Row | SMILES | Activity [1] [%] | Activity [2] [%] | Activity [3] [%] | Activity [4] [%] | Activity [5] [%] | Activity [6] [%] | Activity [7] [%] | Activity [8] [%] | Activity [9] [%] | Activity [10] [%] | Activity [11] [%] | Activity [12] [%] | Activity [13] [%] | Activity [14] [%] | Activity [15] [%] | Activity [16] [%] | Activity [17] [%] | Activity [18] [%] | Activity [19] [%] | Activity [20] [%] | further results
1 | N=C1NC(=O)/C(=C\c2ccc(-c3cccc([N+](=O)[O-])c3)o2)S1 | 104 | 103 | 105 | 113 | 40 | 74 | 100 | 101 | 85 | 17 | 100 | 75 | 93 | 111 | 101 | 85 | 101 | 100 | 60 | 88 | Activity [21]: 80%
2 | C=CCOC(=O)c1cc(-c2ccc(/C=C3/NC(=S)NC3=O)o2)ccc1Cl | 114 | 98 | 107 | 107 | 49 | 86 | 94 | 101 | 122 | 37 | 106 | 58 | 96 | 92 | 94 | 112 | 96 | 78 | 18 | 85 | Activity [21]: 110%
